# Experimental data as given in US20180078615A1, “USE OF CCL2 TO INHIBIT ABNORMAL UTERINE BLEEDING” (UNIVERSITY OF SOUTH FLORIDA, priority 2015, published 2018).
# Key:
# VSMCs [1] = assay: VSMC proliferation assay by BrdU incorporation; format: cell-based, human; details: for BrdU incorporation: control 0.86±0.03
# Experimental: VSMCs were grown in 96-well plates or 8-well chamber slides and incubated with 10^−7 M of MPA (Sigma-Aldrich) or ETO (Organon) or P4 (Sigma-Aldrich) or vehicle±rCCL2 (R&D Systems)±STAT1 inhibitor, 5′-methyl-thioadenosine (MTA; EMD Millipore) (19) for 48 or 72 h. VSMCs were then analyzed for apoptosis by an ELISA based apoptosis kit (Roche) or cleaved-caspase 3 immunostaining. VSMC proliferation was measured by BrdU incorporation Kit (Cell Signaling). (See further details in SI Materials and Methods).
# VSMCs were thawed and cultured in T-75 cell culture flasks in medium 231 (M231; Life Technologies) with smooth muscle growth supplement (5% FBS; 2 ng/mL human basic fibroblast growth factor, 0.5 ng/mL human epidermal growth factor, 5 ng/mL heparin, 0.2 μg/mL insulin and 5 μg/mL BSA; Life Technologies) with 100 U/mL penicillin, 100 μg/mL streptomycin, and 0.25 μg/mL fungizone. Confluent VSMCs were washed twice with 1×PBS to remove residual serum, and then passaged (5,000 cells per well) in 96-well plates and incubated in parallel in M231 with 1% charcoal striped FBS with 0.1% ethanol (vehicle, control), 10^−7 M MPA (Sigma-Aldrich), 10^−7 M ETO (Organon), or 10^−7 M P4 (Sigma-Aldrich)±rCCL2 (monocyte chemotactic protein-1; R&D Systems)±STAT1 inhibitor, 5′-methyl-thioadenosine (MTA; EMD Millipore) for 48 or 72 h.
# BrdU (Cell Signaling) 1× in 100-μL M231 was added to each well during the final 24 h of incubation. At the end of 48- or 72-h incubation period, medium was removed and the wells washed twice with ice-cold PBS. VSMC proliferation was measured using BrdU cell proliferation Kit (Cell Signaling) at room temperature. Cells was incubated in 100 μL per well of the fixing/denaturing solution for 30 min, and then replaced by 100 μL per well BrdU detection antibody solution for 1 h. Following three rinses with wash buffer, plates were incubated in HRP-conjugated secondary antibody (100 μL per well) for 30 min. After three additional rinses with wash buffer, tetramethylbenzidine substrate solution (100 μL per well) was added for 20 min and the reaction stopped by adding 100 μL per well STOP solution. Absorbance was measured at 450 nm using Spectra Max190 microplate reader (Molecular Devices) to detect BrdU incorporation in each well.
# VSMCs [2] = assay: Transwell insert migration assay; format: cell-based, human; details: coincubation with 10 ng/mL rCCL2, 12 h
# Experimental: VSMCs (75,000 cells/200 μL) were suspended in M231 containing 1% charcoal striped FBS and either 0.1% ethanol (vehicle control) or the corresponding steroids and seeded onto insert wells (transwell filter with 12-μm pores; EMD Millipore). The inserts were then placed in 24-well plates containing 500 μL M231 with 1% charcoal striped FBS. After 12 h, cells remaining on the upper surface of the filter were removed with a cotton swab. Migrated cells were trypsinized, centrifuged, and resuspended in 200 μL of M231 medium. The cell suspensions were mixed with 200 μL 10% ethanol containing 0.4% Trypan blue dye and the live cell number was counted by Countess Automated Cell Counter (Invitrogen). See further details in SI Materials and Methods.
# Cultured VSMCs were grown in T-75 cell culture flasks in M231 (Life Technologies) with smooth muscle growth supplement (Life Technologies) with 100 U/mL penicillin, 100 μg/mL streptomycin, 0.25 μg/mL fungizone. Confluent VSMCs were washed twice with 1×PBS to remove residual serum, and then trypsinized, resuspended (75,000 cells per 200 μL per well) in M231 with 1% charcoal striped FBS with 0.1% ethanol (vehicle, control), 10^−7 M MPA (Sigma-Aldrich), 10^−7 M ETO (Organon), or 10^−7 M P4 (Sigma-Aldrich)±rCCL2 (R&D Systems) and seeded on insert wells (transwell filter with 12-μm pores; EMD Millipore), which were then placed in 24-well plates containing 500 μL M231 with 1% charcoal striped FBS. After 12 h, cells remaining on the upper surface of the filter were removed with a cotton swab. Migrated cells attached to the lower surface of each insert or to the surface of lower wells were collected by trypsinization, followed by centrifugation and resuspension in 200 μL of M231 medium. The cell suspensions were mixed with 200 μL 10% ethanol containing 0.4% Trypan blue dye (selectively stains only dead cells blue, whereas live cells with intact cell membranes remain unstained) for 5 min. A mixture of 100 μL M231 and 100 μL 10% ethanol containing 0.4% Trypan blue dye was used as a negative control. To detect live cell numbers, 10 μL of final cell/Trypan blue dye suspension from each treatment condition was pipetted into Countess Cell Counting Chamber Slide and counted by using Countess Automated Cell Counter (Invitrogen). The counting procedure was performed in duplicate.
# endometrial VSMCs = assay: αSMA and PCNA double-immunostaining of endometrium of oophorectomized guinea pigs (OVX-GPs); format: in vivo, guinea pig; details: 21-d time-release pellets, mean±SEM
# Source text: After receiving written informed consent at New York University under Institutional Review Board approval, paraffin sections were derived from banked paired endometrial tissues obtained before and after Depo therapy by […] biopsy from each reproductive age woman with regular menstrual cycles during the secretory phase (n=6). Based on an established animal model for LAPC-induced AUB in humans (9), nulliparous adult female pigmented GPs (weighing 525-775 g) were used in experimental procedures conforming to National Health and Medical Research Council Guidelines of Australia and approved by the Animal Ethics Committee of The University of Western Australia. GPs (n=24) were subjected to bilateral OVX and given subcutaneous 21-d time-release pellets (Innovative Research of America) containing MPA (50 mg/d; n=6) or 17β-Estradiol (E2) (0.1 mg/d; n=6), both MPA and E2 (n=6), or no pellets (n=6). On day 20 of exposure to the pellets, GPs were killed with pentobarbital and uterine tissues fixed in 10% formalin and processed for paraffin embedding. In vitro experiments used aortic VSMCs from premenopausal women (n=2) (Life Technologies). Paraffin sections (5 μm) from paired pre- vs. post-Depo treated human or GP endometria were deparaffinized, boiled in citrate buffer (pH: 6.0) and then incubated in methanol containing 3% H2O2. Following 10% normal horse serum blocking (Vector Labs), slides were incubated overnight at 4° C. with mouse anti-PCNA monoclonal antibody (EMD Millipore). After several rinses in Tris-buffered saline containing 0.1% tween-20 (TBS-T; pH 7.6) slides were then incubated with biotinylated anti-mouse IgG (Vector Labs) for 30 min, then with a streptavidin-peroxidase complex (Elite ABC kit; Vector Labs) for 30 min and with diaminobenzidine (DAB; Vector Labs) for 3 min. […] Slides were counterstained by Hematoxylin and evaluated by histological scoring (HSCORE), as described previously (34). (See details for HSCORE evaluation for αSMA immunoreactivity and PCNA quantitation in SI Materials and Methods). Staining intensity for α-SMA was semiquantitatively evaluated by Q:1 HSCORE (1). […] An HSCORE value was determined for each specimen by using the formula HSCORE=ΣPi (i+1), where Pi is the percentage of stained cells in each intensity category (i.e., i=1, 2, or 3). Quantitation of PCNA immunostaining was determined by counting the number of PCNA^+ (brown) and PCNA^- cell nuclei (blue) in VSMCs (αSMA immunostained cells) and obtaining the ratio of numbers of PCNA^+ cell nuclei to total αSMA^+ cells. For each slide, three different fields were evaluated microscopically at 200× magnification. Slides were evaluated at different times by two investigators blinded to tissue source, and the average HSCORE or percentage of cells with PCNA^+ nuclei to total αSMA^+ cells used.
compound,measurement,setting,value
rCCL2: recombinant chemokine (C-C motif) ligand 2 (monocyte chemotactic protein-1; R&D Systems),effect on inhibition of BrdU incorporation by ETO,VSMCs [1]; 10 ng/mL rCCL2 added to 10^−7 M ETO,reversed
same,effect on inhibition of BrdU incorporation by MPA,VSMCs [1]; 10 ng/mL rCCL2 added to 10^−7 M MPA,reversed
same,BrdU incorporation,VSMCs [1]; rCCL2 1 ng/mL,1.05±0.05
same,BrdU incorporation,VSMCs [1]; rCCL2 10 ng/mL,1.21±0.05
same,effect on inhibition of VSMC migration by ETO,VSMCs [2],did not reverse
same,effect on inhibition of VSMC migration by MPA,VSMCs [2],partially reversed
same,effect on inhibition of VSMC migration by P4,VSMCs [2],did not reverse
5′-methyl-thioadenosine [MTA],effect on rCCL2 reversal of progestin-inhibited BrdU incorporation,VSMCs [1]; 100 μm MTA with 10 ng/mL rCCL2 and MPA or ETO,abolished
"C[C@]12CC[C@@H]3c4ccc(O)cc4CC[C@H]3[C@@H]1CC[C@@H]2O [E2, 17β-Estradiol]",PCNA+ endometrial VSMCs,"endometrial VSMCs; n=6, control 11.2%±2.3",36.8%±2.7
same,αSMA HSCORE,"endometrial VSMCs; n=6, control 135.2±26.0",212.7±14.6
